This note sets out measurements from article PMC8790593, “Synthesis of broad-specificity activity-based probes for exo-β-mannosidases” (Organic & Biomolecular Chemistry, 2021).

Like-named read-outs stand apart in the source and are kept apart here.

Holding throughout (format): biochemical
Holding throughout (conditions): read-out: % inhibition at 1 mM

For experiment [1], the target named is T1, CmMan5A (Cellvibrio mixtus, UniProt Q6QT42).
T1 construct: gene man5A; recombinant, codon-optimised gene in pET24a (NdeI/XhoI), C-terminal 6xHis, E. coli; matches previously crystallised form; GH5
T1 sequence (Q6QT42 26-456): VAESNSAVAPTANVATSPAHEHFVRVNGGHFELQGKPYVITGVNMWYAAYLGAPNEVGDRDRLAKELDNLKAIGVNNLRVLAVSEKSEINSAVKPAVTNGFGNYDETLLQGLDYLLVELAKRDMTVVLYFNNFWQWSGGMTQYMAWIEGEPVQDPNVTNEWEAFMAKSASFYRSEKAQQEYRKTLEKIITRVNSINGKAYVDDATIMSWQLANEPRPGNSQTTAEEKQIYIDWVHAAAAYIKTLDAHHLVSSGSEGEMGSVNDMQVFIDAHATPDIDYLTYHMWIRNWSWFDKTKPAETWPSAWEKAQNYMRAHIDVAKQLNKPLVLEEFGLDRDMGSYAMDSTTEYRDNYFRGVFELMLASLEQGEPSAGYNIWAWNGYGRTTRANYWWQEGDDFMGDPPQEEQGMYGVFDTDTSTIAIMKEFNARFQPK
Briefly: residual activity with 4MU-beta-Man after preincubation; intact MS.

Experiment [2] deals with T2, BsGH164 (Bacteroides salyersiae, UniProt I9SUA3).
T2 construct: gene HMPREF1071_03408; recombinant pET28-His6-BsGH164, E. coli, His6 kept; GH164 exo-beta-mannosidase
T2 sequence (I9SUA3 20-673): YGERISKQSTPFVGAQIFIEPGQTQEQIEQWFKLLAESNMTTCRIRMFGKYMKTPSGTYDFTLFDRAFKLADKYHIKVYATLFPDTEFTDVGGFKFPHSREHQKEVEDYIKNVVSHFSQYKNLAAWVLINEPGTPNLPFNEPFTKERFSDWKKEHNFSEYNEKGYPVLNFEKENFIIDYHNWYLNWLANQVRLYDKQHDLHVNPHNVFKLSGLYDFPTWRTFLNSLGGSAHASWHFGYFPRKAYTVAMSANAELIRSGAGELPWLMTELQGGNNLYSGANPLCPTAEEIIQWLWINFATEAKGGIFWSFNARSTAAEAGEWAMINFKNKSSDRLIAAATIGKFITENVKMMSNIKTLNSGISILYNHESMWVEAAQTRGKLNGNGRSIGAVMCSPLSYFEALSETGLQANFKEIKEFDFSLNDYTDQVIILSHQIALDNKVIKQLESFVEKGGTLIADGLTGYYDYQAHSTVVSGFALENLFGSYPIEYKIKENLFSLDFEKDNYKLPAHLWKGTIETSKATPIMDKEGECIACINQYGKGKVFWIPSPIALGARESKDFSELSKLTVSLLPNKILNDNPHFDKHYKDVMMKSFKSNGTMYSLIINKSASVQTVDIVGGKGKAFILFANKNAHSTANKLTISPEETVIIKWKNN
Briefly: residual activity with 4MU-beta-Man after preincubation; covalent crystal structure ([…] A) and intact MS.

Experiment [3] deals with T2, BsGH164. Described as above. The source holds these as a separate data set.
The target in experiment [4] is T1, CmMan5A. The description is as above.
A further experiment deals with T3, BtMan2A (Bacteroides thetaiotaomicron, UniProt Q8AAK6).
T3 construct: gene BT_0458; recombinant pET28a-BtMan2A-His6, E. coli, His tag kept; GH2 exo-beta-mannosidase
T3 sequence (Q8AAK6 26-864): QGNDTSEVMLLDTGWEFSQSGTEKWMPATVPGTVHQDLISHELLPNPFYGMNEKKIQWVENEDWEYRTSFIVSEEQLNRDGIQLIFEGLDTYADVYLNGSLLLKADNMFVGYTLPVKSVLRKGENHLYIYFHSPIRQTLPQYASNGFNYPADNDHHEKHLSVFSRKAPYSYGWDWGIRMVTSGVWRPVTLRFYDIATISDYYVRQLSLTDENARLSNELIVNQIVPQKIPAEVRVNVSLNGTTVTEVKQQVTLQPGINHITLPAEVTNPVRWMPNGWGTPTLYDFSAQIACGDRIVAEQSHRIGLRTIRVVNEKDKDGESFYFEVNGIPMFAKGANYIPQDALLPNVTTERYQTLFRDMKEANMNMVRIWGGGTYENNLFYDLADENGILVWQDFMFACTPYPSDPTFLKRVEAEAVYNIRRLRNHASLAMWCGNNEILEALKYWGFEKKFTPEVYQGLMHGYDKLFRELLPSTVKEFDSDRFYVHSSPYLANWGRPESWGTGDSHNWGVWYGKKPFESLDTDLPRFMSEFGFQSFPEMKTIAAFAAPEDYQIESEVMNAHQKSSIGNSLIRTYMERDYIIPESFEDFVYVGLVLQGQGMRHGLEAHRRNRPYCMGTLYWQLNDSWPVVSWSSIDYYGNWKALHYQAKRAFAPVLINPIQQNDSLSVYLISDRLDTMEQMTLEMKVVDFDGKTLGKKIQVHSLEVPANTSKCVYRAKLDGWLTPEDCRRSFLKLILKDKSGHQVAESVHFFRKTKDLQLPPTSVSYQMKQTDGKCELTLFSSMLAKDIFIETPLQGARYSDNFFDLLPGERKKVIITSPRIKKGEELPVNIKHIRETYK
Described as above.

In general, inhibition refers to the share of the control response that was lost under treatment. On to `OC[C@@H]1[C@@H](O)[C@H](O)[C@H](O)[C@@H]2N[C@H]12` [compound 2, β-D-manno-cyclophellitol aziridine], for which the results for the inhibition at 1000 µM on CmMan5A [1] and at BsGH164 [2] were 20% and 30%, respectively.

Regarding `OC[C@@H]1[C@@H](O)[C@H](O)[C@H](O)[C@@H]2O[C@H]12` [compound 1, β-D-manno-cyclophellitol], the results for the inhibition at 1000 µM on BsGH164 [3] and at CmMan5A [1] were 76% and 20%, respectively.

As to `[N-]=[N+]=NCCCCCCCCN1[C@@H]2[C@H](CO)[C@@H](O)[C@H](O)[C@H](O)[C@@H]21` (stereo partly drawn) [compound 3, N-octylazido aziridine 3], the inhibition at 1000 µM on CmMan5A [4] and on BtMan2A was 85% in each case.
